Measurements: PubChem BioAssay (NCI)
Values joined by “and” are separate entries in the source; they are usually repeats but may differ in a detail not shown here. Equal entries are not always repeated.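 Step 1: Grow cells in 96-well plates. Step 2: Expose to compound for 48 hours at 5 concentrations. Step 3: Interpolate endpoints linearly; if unreached, use highest concentration. The concentration for 50% growth inhibition is given as GI50. TGI is the concentration that stops growth completely.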

Tests used:
Assay in all cases: NCI tumour cell line growth inhibition, 48 h
IGROV1 ovarian = test system: IGROV1 ovarian
SF-268 CNS = test system: SF-268 CNS
UACC-257 melanoma = test system: UACC-257 melanoma
UACC-62 melanoma = test system: UACC-62 melanoma
SW-620 colon = test system: SW-620 colon
DU-145 prostate = test system: DU-145 prostate
OVCAR-8 ovarian = test system: OVCAR-8 ovarian
PC-3 prostate = test system: PC-3 prostate
COLO 205 colon = test system: COLO 205 colon
786-0 renal = test system: 786-0 renal

## C1=C2CNCC3=Cc4ccc5ccccc5c4OC23Oc2c1ccc1ccccc21
IGROV1 ovarian
  GI50: 9.59 µM
  TGI: 28.7 µM
SF-268 CNS
  GI50: 5.64 µM
  TGI: 22.1 µM
UACC-257 melanoma
  GI50: 12.6 µM
  TGI: 38.7 µM
UACC-62 melanoma
  GI50: 5.05 µM
  TGI: 21.7 µM
SW-620 colon
  GI50: 2.52 µM
  TGI: 10.5 µM
DU-145 prostate
  GI50: 3.29 µM
  TGI: 11.1 µM
OVCAR-8 ovarian
  GI50: 2.99 µM
  TGI: 14.9 µM
PC-3 prostate
  GI50: 3.5 µM
  TGI: 18.2 µM
COLO 205 colon
  GI50: 2.09 µM
  TGI: 4.23 µM
786-0 renal
  GI50: 5.1 µM
  TGI: 31.5 µM

## CC[C@H](C)[C@H](NC(=O)[C@H]1CCCCN1C)C(=O)N(C)[C@H](C[C@@H](OC(C)=O)c1nc(C(=O)N[C@@H](Cc2ccccc2)C[C@H](C)C(=O)OC)cs1)C(C)C
IGROV1 ovarian
  GI50: 0.002 µM and 0.0025 µM
  TGI: > 25 µM
SF-268 CNS
  GI50: 0.000466 µM and 0.0025 µM
  TGI: > 25 µM
UACC-257 melanoma
  GI50: 8.72 µM
  TGI: > 25 µM
UACC-62 melanoma
  TGI: > 25 µM
SW-620 colon
  TGI: > 25 µM
DU-145 prostate
  GI50: 0.000208 µM
OVCAR-8 ovarian
  GI50: 0.000473 µM and 0.0025 µM
  TGI: > 25 µM
PC-3 prostate
  TGI: > 25 µM
COLO 205 colon
  GI50: 0.000208 µM and < 0.0025 µM
  TGI: 0.00119 µM and < 0.0025 µM
786-0 renal
  GI50: 0.000366 µM and 0.0025 µM
  TGI: 14.8 µM

## Cn1cnc([N+](=O)[O-])c1Sc1nc(N)nc2nc[nH]c12
IGROV1 ovarian
  GI50: 14 µM
  TGI: > 100 µM
SF-268 CNS
  GI50: 2.39 µM
  TGI: > 100 µM
UACC-257 melanoma
  GI50: 8.38 µM
  TGI: > 100 µM
UACC-62 melanoma
  GI50: 2.96 µM
  TGI: 25.7 µM
SW-620 colon
  GI50: 7.43 µM
  TGI: > 100 µM
DU-145 prostate
  GI50: 2.91 µM
  TGI: > 100 µM
OVCAR-8 ovarian
  GI50: 3.68 µM
  TGI: > 100 µM
PC-3 prostate
  GI50: 7.91 µM
  TGI: > 100 µM
COLO 205 colon
  GI50: 15 µM
  TGI: > 74.5 µM
786-0 renal
  GI50: 2.04 µM
  TGI: > 100 µM

## CN(C)C(=O)SC1=C(c2c(Cl)cccc2Cl)C(=O)c2ccccc21
IGROV1 ovarian
  GI50: 4.78 µM
  TGI: 11.4 µM
SF-268 CNS
  GI50: 8.9 µM
  TGI: 22.7 µM
UACC-257 melanoma
  GI50: 5.16 µM
  TGI: 9.81 µM
UACC-62 melanoma
  GI50: 3.85 µM
  TGI: 8.24 µM
SW-620 colon
  GI50: 2.17 µM
  TGI: 5.01 µM
DU-145 prostate
  GI50: 2.4 µM
  TGI: 5.61 µM
OVCAR-8 ovarian
  GI50: 6.38 µM
  TGI: 17.1 µM
PC-3 prostate
  GI50: 7.95 µM
  TGI: 22.8 µM
COLO 205 colon
  GI50: 2.22 µM
  TGI: 4.42 µM
786-0 renal
  GI50: 10.3 µM
  TGI: 22.4 µM

## O=c1oc2ccc(F)cc2c(=O)n1-c1ccc(Br)cc1F
IGROV1 ovarian
  GI50: 0.444 µM
  TGI: 22.7 µM
SF-268 CNS
  GI50: 0.633 µM
  TGI: 13.7 µM
UACC-257 melanoma
  GI50: 0.528 µM
  TGI: 7.37 µM
UACC-62 melanoma
  GI50: 0.284 µM
  TGI: 1.16 µM
SW-620 colon
  GI50: 1.11 µM
  TGI: 25.5 µM
DU-145 prostate
  GI50: 0.781 µM
  TGI: 22.8 µM
OVCAR-8 ovarian
  GI50: 1.59 µM
  TGI: > 100 µM
PC-3 prostate
  GI50: 1.52 µM
  TGI: 7.42 µM
COLO 205 colon
  GI50: 4.03 µM
  TGI: 15.5 µM
786-0 renal
  GI50: 2.79 µM
  TGI: 9.42 µM

## CCc1cccc(CC)c1/C=C/c1cncc(C(=O)NC)c1
IGROV1 ovarian
  GI50: > 21.7 µM
  TGI: > 25 µM
SF-268 CNS
  GI50: 15.6 µM
  TGI: > 25 µM
UACC-257 melanoma
  GI50: > 13.5 µM
  TGI: > 25 µM
UACC-62 melanoma
  GI50: 10 µM
  TGI: > 25 µM
SW-620 colon
  GI50: 10.5 µM
  TGI: > 25 µM
DU-145 prostate
  GI50: 16.5 µM
  TGI: > 25 µM
OVCAR-8 ovarian
  GI50: 15.4 µM
  TGI: > 25 µM
PC-3 prostate
  GI50: 13.9 µM
  TGI: > 25 µM
COLO 205 colon
  GI50: 13.8 µM
  TGI: > 25 µM
786-0 renal
  GI50: 14.2 µM
  TGI: > 25 µM

## CC(=O)Oc1ccc(C2(c3ccc(OC(C)=O)cc3)C(=O)Nc3ccccc32)cc1
IGROV1 ovarian
  GI50: 11.2 µM and 16.8 µM
  TGI: 81.3 µM and > 100 µM
SF-268 CNS
  GI50: 38.5 µM and 32.8 µM
  TGI: > 100 µM
UACC-257 melanoma
  GI50: 24.1 µM and 28.2 µM
  TGI: 79.4 µM and > 100 µM
UACC-62 melanoma
  GI50: 34.8 µM and 43.5 µM
  TGI: > 100 µM
SW-620 colon
  GI50: 36.7 µM and 31.5 µM
  TGI: > 100 µM
DU-145 prostate
  GI50: 24.4 µM and 28.7 µM
  TGI: > 70.4 µM and 95.3 µM
OVCAR-8 ovarian
  GI50: 0.292 µM and 0.408 µM
  TGI: > 100 µM
PC-3 prostate
  GI50: 5.19 µM and 14.3 µM
  TGI: > 100 µM
COLO 205 colon
  GI50: 0.0741 µM and 0.155 µM
  TGI: 11.9 µM and 29.8 µM
786-0 renal
  GI50: 42.6 µM and 46.6 µM
  TGI: > 100 µM

## O=C(CCN1CCCC1)Nc1ccc2c(Nc3ccccc3)c3ccccc3nc2c1
IGROV1 ovarian
  GI50: 0.474 µM
  TGI: 3.02 µM
SF-268 CNS
  GI50: 0.677 µM
  TGI: 2.3 µM
UACC-257 melanoma
  GI50: 1.75 µM
  TGI: 3.83 µM
UACC-62 melanoma
  GI50: 1.12 µM
  TGI: 2.55 µM
SW-620 colon
  GI50: 0.232 µM
  TGI: 1.87 µM
DU-145 prostate
  GI50: 0.172 µM
  TGI: 1.64 µM
OVCAR-8 ovarian
  GI50: 0.851 µM
  TGI: 5.51 µM
PC-3 prostate
  GI50: 0.951 µM
  TGI: 3.01 µM
COLO 205 colon
  GI50: 0.787 µM
  TGI: 2.49 µM
786-0 renal
  GI50: 0.467 µM
  TGI: 1.93 µM

## CN(C)C/C=C/C(=O)Nc1ccc(C(=O)N2CCC[C@@H](Nc3ncc(Cl)c(-c4c[nH]c5ccccc45)n3)C2)cc1
IGROV1 ovarian
  GI50: 0.149 µM
  TGI: 11.3 µM
SF-268 CNS
  GI50: 0.125 µM
  TGI: 1.78 µM
UACC-257 melanoma
  GI50: 0.234 µM
  TGI: 1.32 µM
UACC-62 melanoma
  GI50: 0.173 µM
  TGI: 0.445 µM
SW-620 colon
  GI50: 0.191 µM
  TGI: 5.74 µM
DU-145 prostate
  GI50: 0.215 µM
  TGI: 11.1 µM
OVCAR-8 ovarian
  GI50: 0.406 µM
  TGI: 11.8 µM
PC-3 prostate
  GI50: 0.308 µM
  TGI: 3.48 µM
COLO 205 colon
  GI50: 0.0338 µM
  TGI: 0.122 µM
786-0 renal
  GI50: 1.96 µM
  TGI: 8.38 µM

## CCCn1cnc2c(SCc3ccccc3)nc(N)nc21
IGROV1 ovarian
  GI50: > 100 µM
  TGI: > 100 µM
SF-268 CNS
  GI50: > 100 µM
  TGI: > 100 µM
UACC-257 melanoma
  GI50: > 100 µM
  TGI: > 100 µM
UACC-62 melanoma
  GI50: > 100 µM
  TGI: > 100 µM
SW-620 colon
  GI50: > 100 µM
  TGI: > 100 µM
DU-145 prostate
  GI50: > 100 µM
  TGI: > 100 µM
OVCAR-8 ovarian
  GI50: 71.8 µM
  TGI: > 100 µM
PC-3 prostate
  GI50: 67.9 µM
  TGI: > 100 µM
COLO 205 colon
  GI50: > 100 µM
  TGI: > 100 µM
786-0 renal
  GI50: > 100 µM
  TGI: > 100 µM

## Cn1cc(CO)c2ccccc21
IGROV1 ovarian
  GI50: 10.9 µM
  TGI: > 100 µM
SF-268 CNS
  GI50: 60.6 µM
  TGI: > 100 µM
UACC-257 melanoma
  GI50: > 100 µM
  TGI: > 100 µM
UACC-62 melanoma
  GI50: 54.9 µM
  TGI: > 100 µM
SW-620 colon
  GI50: 19.1 µM
  TGI: 91.1 µM
DU-145 prostate
  GI50: > 100 µM
  TGI: > 100 µM
OVCAR-8 ovarian
  GI50: > 100 µM
  TGI: > 100 µM
PC-3 prostate
  GI50: 85 µM
  TGI: > 100 µM
COLO 205 colon
  GI50: 30.3 µM
  TGI: > 100 µM
786-0 renal
  GI50: > 100 µM
  TGI: > 100 µM
